Reference: US8957064B2, “Fused pyrimidines” (Bayer Intellectual Property GmbH, priority 2009, dated 2015)

Columns and labels:
[1] = molecular target: His-tagged human recombinant kinase full-length Akt2 activated by PDK1 (Homo sapiens (Human), UniProt P31751); experiment: Akt2 kinase assay (Akt2 TR-FRET assay, Biological Assay 2.0); format: biochemical; conditions: 10 μM ATP, 1 μM biotinylated peptide substrate, 60 min at 22° C.
Text: Biological Assay 2.0: Akt2 Kinase Assay
Akt2 inhibitory activity of compounds of the present invention was quantified employing the Akt2 TR-FRET assay as described in the following paragraphs.
(§1) His-tagged human recombinant kinase full-length Akt2 expressed in insect cells and activated by PDK1 was purchased form Invitrogen (part number PV 3975). As substrate for the kinase reaction the biotinylated peptide biotin-Ahx-KKLNRTLSFAEPG (C-terminus in amide form) was used which can be purchased e.g. from the company Biosynthan GmbH (Berlin-Buch, Germany).
(§2) For the assay 50 nl of a 100 fold concentrated solution of the test compound in DMSO was pipetted into a black low volume 384 well microtiter plate (Greiner Bio-One, Frickenhausen, Germany), 2 μl of a solution of Akt2 in assay buffer [50 mM TRIS/HCl pH 7.5, 5 mM MgCl2, 1 mM dithiothreitol, 0.02% (v/v) Triton X-100 (Sigma)] were added and the mixture was incubated for 15 min at 22° C. to allow prebinding of the test compounds to the enzyme before the start of the kinase reaction. Then the kinase reaction was started by the addition of 3 μl of a solution of adenosine-tri-phosphate (ATP, 16.7 μM=>final conc. in the 5 μl assay volume is 10 μM) and substrate (1.67 μM=>final conc. in the 5 μl assay volume is 1 μM) in assay buffer and the resulting mixture was incubated for a reaction time of 60 min at 22° C. The concentration of Akt2 in the assay was adjusted depending of the activity of the enzyme lot and was chosen appropriate to have the assay in the linear range, typical enzyme concentrations were in the range of about 0.2 ng/μl (final conc. in the 5 μl assay volume).
(§3) The reaction was stopped by the addition of 5 μl of a solution of HTRF detection reagents (200 nM streptavidine-XL665 [Cisbio] and 1.5 nM anti-phosho-Serine antibody [Millipore, cat. #35-001] and 0.75 nM LANCE Eu-W 1024 labeled anti-mouse IgG antibody [Perkin Elmer]) in an aqueous EDTA-solution (100 mM EDTA, 0.1% (w/v) bovine serum albumin in 50 mM HEPES/NaOH pH 7.5).
(§4) The resulting mixture was incubated 1 h at 22° C. to allow the binding of the biotinylated phosphorylated peptide to the streptavidine-XL665 and the antibodies. Subsequently the amount of phosphorylated substrate was evaluated by measurement of the resonance energy transfer from the anti-mouse-IgG-Eu-Chelate to the streptavidine-XL665. Therefore, the fluorescence emissions at 620 nm and 665 nm after excitation at 350 nm was measured in a TR-FRET reader, e.g. a Rubystar (BMG Labtechnologies, Offenburg, Germany) or a Viewlux (Perkin-Elmer). The ratio of the emissions at 665 nm and at […] was taken as the measure for the amount of phosphorylated substrate. The data were normalised (enzyme reaction without inhibitor=0% inhibition, all other assay components but no enzyme=100% inhibition).

[2] = molecular target: His-tagged human recombinant kinase full-length Akt1 (Homo sapiens (Human), UniProt P31749); experiment: Akt1 kinase assay (Akt1 TR-FRET assay, Biological Assay 1.0); format: biochemical; conditions: 10 μM ATP, 1 μM biotinylated peptide substrate, 60 min at 22° C.
Text: Biological Assay 1.0: Akt1 Kinase Assay
as §1, with “Akt1 inhibitory activity of compounds of the present invention may be quantified employing the Akt1 TR-FRET assay as described in the following paragraphs. His-tagged” for “His-tagged”, “Akt1” for “Akt2”, “cells” for “cells and activated by PDK1”, “3599).” for “3975).”
as §2, with “Akt1” for “Akt2”, “0.05” for “0.2”
as §3
as §4, with “HTRF” for “TR-FRET”

His-tagged human recombinant kinase full-length Akt1, sequence (P31749 whole entry): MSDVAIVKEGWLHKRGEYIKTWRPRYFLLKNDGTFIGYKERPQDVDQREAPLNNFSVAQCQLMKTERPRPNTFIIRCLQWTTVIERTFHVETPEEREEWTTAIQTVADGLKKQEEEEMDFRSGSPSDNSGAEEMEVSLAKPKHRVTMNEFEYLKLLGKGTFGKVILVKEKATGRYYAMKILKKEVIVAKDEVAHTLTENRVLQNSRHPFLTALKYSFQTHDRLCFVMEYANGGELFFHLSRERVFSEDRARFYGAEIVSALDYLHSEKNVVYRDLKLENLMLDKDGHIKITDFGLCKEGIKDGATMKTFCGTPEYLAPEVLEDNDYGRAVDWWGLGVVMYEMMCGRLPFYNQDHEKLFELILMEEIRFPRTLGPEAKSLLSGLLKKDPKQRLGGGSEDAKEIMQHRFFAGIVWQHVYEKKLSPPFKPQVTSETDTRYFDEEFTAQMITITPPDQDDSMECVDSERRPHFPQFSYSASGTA
His-tagged human recombinant kinase full-length Akt2 activated by PDK1, sequence (P31751 whole entry): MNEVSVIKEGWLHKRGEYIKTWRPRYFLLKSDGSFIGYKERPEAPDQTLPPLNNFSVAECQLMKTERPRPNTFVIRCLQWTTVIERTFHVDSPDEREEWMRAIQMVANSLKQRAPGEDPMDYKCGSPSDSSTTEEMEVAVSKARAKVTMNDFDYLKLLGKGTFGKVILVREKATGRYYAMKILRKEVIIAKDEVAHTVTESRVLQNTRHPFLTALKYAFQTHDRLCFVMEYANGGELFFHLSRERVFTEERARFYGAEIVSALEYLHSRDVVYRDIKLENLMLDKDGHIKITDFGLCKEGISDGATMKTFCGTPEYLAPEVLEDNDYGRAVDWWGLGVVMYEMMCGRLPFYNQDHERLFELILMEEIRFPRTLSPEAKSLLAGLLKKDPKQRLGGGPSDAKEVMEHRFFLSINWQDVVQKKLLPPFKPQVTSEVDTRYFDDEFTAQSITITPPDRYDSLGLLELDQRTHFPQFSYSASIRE

| Compound | IC50 [1] [nM] | IC50 [2] [nM] |
| --- | --- | --- |
| COC(=O)c1cnn2cc(-c3c(F)cccc3F)c(-c3ccc(CN4CCC(c5n[nH]c(-c6cccc(C)n6)n5)CC4)cc3)nc12 [Example 48.0, 6-(2,6-difluorophenyl)-5-(4-{4-[5-(6-methylpyridine-2-yl)-1H-[1,2,4]triazole-3-yl]-piperidine-1-ylmethyl}-phenyl)-pyrazolo[1,5-a]pyrimidine-3-carboxylic acid methyl ester] | 82 | 7 |
| COC(=O)c1cnn2cc(-c3c(F)cccc3F)c(-c3ccc(CN4CCC(c5n[nH]c(-c6ccccn6)n5)CC4)cc3)nc12 [Example 48.1, 6-(2,6-difluorophenyl)-5-(4-{4-[5-(pyridine-2-yl)-1H-[1,2,4]triazole-3-yl]-piperidine-1-ylmethyl}-phenyl)-pyrazolo[1,5-a]pyrimidine-3-carboxylic acid methyl ester] | 203 | 5 |
| Cc1nc2nc(-c3ccc(CN4CCC(c5n[nH]c(-c6ccccn6)n5)CC4)cc3)c(-c3cccc(F)c3)cn2n1 [Example 49.1, 6-(3-fluorophenyl)-2-methyl-5-{4-[4-(5-pyridine-2-yl)-1H-[1,2,4]triazole-3-yl)-piperidine-1-ylmethyl]-phenyl]-[1,2,4]triazolo[1,5-a]pyrimidine formiate] | 129 | 28 |
| Cc1nc2nc(-c3ccc(CN4CCC(c5n[nH]c(-c6cc(Cl)ccn6)n5)CC4)cc3)c(-c3ccc(F)cc3F)cn2n1 [Example 50.0, 5-(4-{4-[5-(4-chloropyridine-2-yl)-1H-[1,2,4]triazole-3-yl]-piperidine-1-ylmethyl}-phenyl) 6-(2,4-difluorophenyl)-2-methyl-[1,2,4]triazolo[1,5-a]pyrimidine] | 97 | 22 |
| Cc1cccc(-c2nc(C3CCN(Cc4ccc(-c5nc6nc(C)nn6cc5-c5ccc(F)cc5F)cc4)CC3)n[nH]2)n1 [Example 50.1, 6-(2,4-difluorophenyl)-2-methyl-5-(4-{4-[5-(6-methylpyridine-2-yl)-1H-[1,2,4]triazole-3-yl]-piperidine-1-ylmethyl}-phenyl)-[1,2,4]triazolo[1,5-a]pyrimidine] | 108 | 62 |
| Cc1nc2nc(-c3ccc(CN4CCC(c5n[nH]c(-c6cnccn6)n5)CC4)cc3)c(-c3ccc(F)cc3F)cn2n1 [Example 50.2, 6-(2,4-difluorophenyl)-2-methyl-5-[4-{4-(5-pyrazine-2-yl-1H-[1,2,4]triazole-3-yl)-piperidine-1-ylmethyl]-phenyl}-[1,2,4]triazolo[1,5-a]pyrimidine] | 1100 | 355 |
| Cc1cccc(-c2nc(C3CCN(Cc4ccc(-c5nc6nc(C7CC7)nn6cc5-c5ccc(F)cc5)cc4)CC3)n[nH]2)n1 [Example 51.0, 2-cyclopropyl-6-(4-fluorophenyl)-5-(4-{4-[5-(6-methylpyridine-2-yl)-1H-[1,2,4]triazole-3-yl]-piperidine-1-ylmethyl}-phenyl)-[1,2,4]triazolo[1,5-a]pyrimidine] | 46 | 41 |
| Fc1ccc(-c2cn3nc(C4CC4)nc3nc2-c2ccc(CN3CCC(c4n[nH]c(-c5ccccn5)n4)CC3)cc2)cc1 [Example 51.1, 2-cyclopropyl-6-(4-fluorophenyl)-5-{4-[4-(5-pyridine-2-yl-1H-[1,2,4]triazole-3-yl)-piperidine-1-ylmethyl]-phenyl}-[1,2,4]triazolo[1,5-a]pyrimidine] | 69 | 32 |
| Fc1ccc(-c2cn3nc(C4CC4)nc3nc2-c2ccc(CN3CCC(c4n[nH]c(-c5cc(Cl)ccn5)n4)CC3)cc2)cc1 [Example 51.2, 5-(4-{4-[5-(4-chloropyridine-2-yl)-1H-[1,2,4]triazole-3-yl]-piperidine-1-ylmethyl}-phenyl)-2-cyclopropyl-6-(4-fluorophenyl)-[1,2,4]triazolo[1,5-a]pyrimidine] | 165 | 56 |

The next compounds have a lower IC50 [1] than those just listed; values first:

| IC50 [1] [nM] | IC50 [2] [nM] | Compound |
| --- | --- | --- |
| 37 | 13 | Cc1cccc(-c2nc(C3CCN(Cc4ccc(-c5nc6nc(C)nn6cc5-c5cccc(F)c5)cc4)CC3)n[nH]2)n1 [Example 49.0, 6-(3-fluorophenyl)-2-methyl-5-(4-{4-[5-(6-methylpyridine-2-yl)-1H-[1,2,4]triazole-3-yl]-piperidine-1-ylmethyl}-phenyl)-[1,2,4]triazolo[1,5-a]pyrimidine] |
| 32 | 8 | Fc1ccc(-c2cn3ccnc3nc2-c2ccc(CN3CCC(c4n[nH]c(-c5ccccn5)n4)CC3)cc2)cc1 [Example 52.1, 6-(4-fluorophenyl)-7-{4-[4-(5-pyridine-2-yl)-1H-[1,2,4]triazole-3-yl)-piperidine-1-ylmethyl)-phenyl}-imidazo[1,2-a]pyrimidine formiate] |
| 19 | 5 | CCc1cnn2cc(-c3ccccc3)c(-c3ccc(CN4CC(c5n[nH]c(-c6cccc(C)n6)n5)C4)cc3)nc12 [Example 42.0, 3-ethyl-5-(4-{3-[5-(6-methyl-pyridin-2-yl)-1H-[1,2,4]triazol-3-yl]-azetidin-1-ylmethyl}-phenyl)-6-phenyl-pyrazolo[1,5-a]pyrimidine] |
| 17 | 9 | Cc1cccc(-c2nc(C3CCN(Cc4ccc(-c5nc6nccn6cc5-c5ccc(F)cc5)cc4)CC3)n[nH]2)n1 [Example 52.0, 6-(4-fluorophenyl)-7-(4-{4-[5-(6-methylpyridine-2-yl)-1H-[1,2,4]triazole-3-yl]-piperidine-1-ylmethyl}-phenyl)-imidazo[1,2-a]pyrimidine formiate] |
| 11 | 22 | CC(C)Nc1nc2nc(-c3ccc(CN4CC(c5n[nH]c(-c6ccccn6)n5)C4)cc3)c(-c3ccccc3)cn2n1 [Example 43.1, isopropyl-(6-phenyl-5-{4-[3-(5-pyridin-2-yl-1H-[1,2,4]triazol-3-yl)-azetidin-1-ylmethyl]-phenyl}-[1,2,4]triazolo[1,5-a]pyrimidin-2-yl)-amine] |
| 10 | 10 | Cc1cccc(-c2nc(C3CN(Cc4ccc(-c5nc6nc(C7CC7)nn6cc5-c5ccccc5)cc4)C3)n[nH]2)n1 [Example 41.0, 2-cyclopropyl-5-(4-{3-[5-(6-methylpyridine-2-yl)-1H-[1,2,4]triazole-3-yl]-azetidine-1-ylmethyl}-phenyl)-6-phenyl-[1,2,4]triazolo[1,5-a]pyrimidine] |
